Assays:
[1] = target: GDP-bound NRAS wild-type protein (Homo sapiens, UniProt P01111); test: Binding to NRAS by surface plasmon resonance (SPR), Single Cycle Kinetics; conditions: KD ratio NRAS/KRAS, SPR, GDP-bound wild-type proteins
[2] = target: GDP-bound HRAS wild-type protein (Homo sapiens, UniProt P01112); test: Binding to HRAS by surface plasmon resonance (SPR), Single Cycle Kinetics; conditions: KD ratio HRAS/KRAS, SPR, GDP-bound wild-type proteins
GDP-bound HRAS wild-type protein, sequence (P01112 whole entry): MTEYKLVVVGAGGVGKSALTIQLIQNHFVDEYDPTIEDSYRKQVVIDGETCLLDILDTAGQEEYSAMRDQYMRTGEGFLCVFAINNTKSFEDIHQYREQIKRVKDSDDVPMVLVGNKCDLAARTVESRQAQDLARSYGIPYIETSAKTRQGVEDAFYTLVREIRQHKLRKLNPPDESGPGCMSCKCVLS

GDP-bound NRAS wild-type protein, sequence (P01111 whole entry): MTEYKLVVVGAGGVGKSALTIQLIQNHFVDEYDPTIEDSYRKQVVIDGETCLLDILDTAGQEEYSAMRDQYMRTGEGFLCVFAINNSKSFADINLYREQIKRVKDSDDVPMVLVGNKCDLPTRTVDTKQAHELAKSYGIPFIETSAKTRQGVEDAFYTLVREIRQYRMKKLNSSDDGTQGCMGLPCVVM

## CC[C@H](C)[C@@H]1NC(=O)[C@@H]2CCCCCCc3ccc(cc3)C[C@@H](C(=O)N(C)CC(=O)N[C@@H](CCc3ccc(C(F)(F)F)c(OC)c3)C(=O)N3CC4(CC4)C[C@H]3C(=O)NC3(CC(C)(C)C3)C(=O)N(C)[C@@H](C3CCCC3)C(=O)N(C)[C@H](C(=O)N(C)C)CC(=O)N2C)N2CC/C=C\C[C@@H](C2=O)N(C)C(=O)CN(C)C1=O [PP3069]
[1]
  NRAS/KRAS (ratio of KD value with respect to GDP-bound NRAS wild-type protein to KD value with respect to KRAS): A (a compound having 10 or more and less than 20 is denoted as A)
[2]
  HRAS/KRAS (ratio of KD value with respect to GDP-bound HRAS wild-type protein to KD value with respect to KRAS): B (a compound having 3 or more and less than 10 is denoted as B)

## CCO[C@@H]1C[C@H]2C(=O)NC3(CC(C)(C)C3)C(=O)N(C)[C@@H](C3CCCC3)C(=O)N(C)[C@H](C(=O)N(C)C)CC(=O)N(C)[C@H]3CCCCCCc4ccc(cc4)C[C@@H](C(=O)N(C)CC(=O)N[C@@H](CCc4ccc(Cl)c(Cl)c4)C(=O)N2C1)N1CC/C=C\C[C@@H](C1=O)N(C)C(=O)CN(C)C(=O)[C@H]([C@@H](C)CC)NC3=O [PP3071]
[1]
  NRAS/KRAS (ratio of KD value with respect to GDP-bound NRAS wild-type protein to KD value with respect to KRAS): A (a compound having 10 or more and less than 20 is denoted as A)
[2]
  HRAS/KRAS (ratio of KD value with respect to GDP-bound HRAS wild-type protein to KD value with respect to KRAS): B (a compound having 3 or more and less than 10 is denoted as B)

## CC[C@H](C)[C@@H]1NC(=O)[C@@H]2CCCCCc3ccc(cc3)C[C@@H](C(=O)N(C)CC(=O)N[C@@H](CCc3ccc(C(F)(F)F)c(OC)c3)C(=O)N3C[C@H](OC(C)C)C[C@H]3C(=O)NC3(CC(C)(C)C3)C(=O)N(C)[C@@H](C3CCCC3)C(=O)N(C)[C@H](C(=O)N(C)C)CC(=O)N2C)N2CC/C=C\C[C@@H](C2=O)N(C)C(=O)CN(C)C1=O [PP3072]
[1]
  NRAS/KRAS (ratio of KD value with respect to GDP-bound NRAS wild-type protein to KD value with respect to KRAS): A (a compound having 10 or more and less than 20 is denoted as A)
[2]
  HRAS/KRAS (ratio of KD value with respect to GDP-bound HRAS wild-type protein to KD value with respect to KRAS): B (a compound having 3 or more and less than 10 is denoted as B)

## CC[C@H](C)[C@@H]1NC(=O)[C@@H]2CCCCCc3ccc(cc3)C[C@@H](C(=O)N(C)CC(=O)N[C@@H](CCc3ccc(C(F)(F)F)c(OC)c3)C(=O)N3C[C@H](OC4CCC4)C[C@H]3C(=O)NC3(CC(C)(C)C3)C(=O)N(C)[C@@H](C3CCCC3)C(=O)N(C)[C@H](C(=O)N(C)C)CC(=O)N2C)N2CC/C=C\C[C@@H](C2=O)N(C)C(=O)CN(C)C1=O [PP3073]
[1]
  NRAS/KRAS (ratio of KD value with respect to GDP-bound NRAS wild-type protein to KD value with respect to KRAS): A (a compound having 10 or more and less than 20 is denoted as A)
[2]
  HRAS/KRAS (ratio of KD value with respect to GDP-bound HRAS wild-type protein to KD value with respect to KRAS): A (a compound having 10 or more and less than 20 is denoted as A)

## CC[C@H](C)[C@@H]1NC(=O)[C@@H]2CCCCCc3ccc(cc3)C[C@@H](C(=O)N(C)CC(=O)N[C@@H](CCc3ccc(C(F)(F)F)c(OC)c3)C(=O)N3CC4(CC4)C[C@H]3C(=O)NC3(CC(C)(C)C3)C(=O)N(C)[C@@H](C3CCCC3)C(=O)N(C)[C@H](C(=O)N(C)C)CC(=O)N2C)N2CC/C=C\C[C@@H](C2=O)N(C)C(=O)CN(C)C1=O [PP3074]
[1]
  NRAS/KRAS (ratio of KD value with respect to GDP-bound NRAS wild-type protein to KD value with respect to KRAS): A (a compound having 10 or more and less than 20 is denoted as A)
[2]
  HRAS/KRAS (ratio of KD value with respect to GDP-bound HRAS wild-type protein to KD value with respect to KRAS): A (a compound having 10 or more and less than 20 is denoted as A)

## CCO[C@@H]1C[C@H]2C(=O)NC3(CC(C)(C)C3)C(=O)N(C)[C@@H](C3CCCC3)C(=O)N(C)[C@H](C(=O)N(C)C)CC(=O)N(C)[C@H]3CCCCCc4ccc(cc4)C[C@@H](C(=O)N(C)CC(=O)N[C@@H](CCc4ccc(C(F)(F)F)c(OC)c4)C(=O)N2C1)N1CC/C=C\C[C@@H](C1=O)N(C)C(=O)CN(C1CC1)C(=O)[C@H]([C@@H](C)CC)NC3=O [PP3075]
[1]
  NRAS/KRAS (ratio of KD value with respect to GDP-bound NRAS wild-type protein to KD value with respect to KRAS): A (a compound having 10 or more and less than 20 is denoted as A)
[2]
  HRAS/KRAS (ratio of KD value with respect to GDP-bound HRAS wild-type protein to KD value with respect to KRAS): A (a compound having 10 or more and less than 20 is denoted as A)

— patent publication US20250230193A1, “CYCLIC COMPOUND HAVING SELECTIVE KRAS INHIBITORY EFFECT ON HRAS AND NRAS” (CHUGAI SEIYAKU KABUSHIKI KAISHA, priority 2022, published 2025)
